Results as given in patent US20240261296A1, “THERAPEUTIC MODALITIES FOR INHIBITING PANCREATIC BETA CELL IMPAIRMENT AND TREATING DIABETES” (Hadasit Medical Research Serices & Development Ltd., priority 2021, published 2024).

Assays:
[1] = test system: human islet cells; assay: Caspase-Glo 3/7 assay in palmitic acid-treated human islets; assay type: cell-based; design: rescuing human islet cells from apoptosis, compared with L-798106 / inhibiting or reversing palmitate-induced apoptosis in pancreatic islets of both human donors / inhibition of palmitate-induced apoptosis in human islets, donor 1: dose or concentration left out as unconfirmed; settings: palmitic acid, 48 h; for rescuing human islet cells from apoptosis, compared with L-798106: two human donors
Protocol: (§1) Islet and cell culture: The pancreatic β-cell line MIN6, which is a clonal murine insulin-secreting line, was cultured in DMEM (Biological Industries, Beit Haemek, Israel) supplemented with 11 mM Glucose, 2 mM glutamine, 15% heat-inactivated fetal calf serum (FCS), 100 U/ml penicillin, 100 µg/ml streptomycin and 61 μM β-mercaptoethanol. Human islets were obtained from the European Consortium for Islet Transplantation (ECIT) at the San Raffaele Hospital and from the Niguarda Hospital, (Milan, Italy) and cultured in CMRL-1066 media (Biological Industries, Beit HaEmek, Israel) supplemented with 10% FCS, 5.5 mM glucose, 2 mM L-Glutamine, 100 U/ml penicillin, 100 μg/ml streptomycin and 150 μg/ml gentamycin. Palmitate was added to 1% FCS and 0.5% defatted BSA (Roche, Germany).
Next, the ability of the compounds to rescue human islet cells from palmitate-induced apoptosis was determined. To this end, the Caspase-Glo 3/7 assay reagent (Promega) was used for caspase 3/7 detection in palmitic acid-treated cells. The reagent provides a proluminescent caspase-3/7 substrate, which contains the tetrapeptide sequence DEVD, in combination with luciferase and a cell-lysing agent. The addition of the reagent directly to the wells results in cell lysis, followed by caspase cleavage of the DEVD substrate, and the generation of luminescence.
Accordingly, human islets from two donors were exposed to the various compounds or to L-798106 for 48 h in the presence of palmitic acid, and the bioluminescence was measured as compared to control cells. FIGS. 3A-3B show the results of the treatment with […] of the compounds in two human donors (FIG. 3A—donor 1, FIG. 3B—donor 2). PA: Palmitate; L: L-798106; RLU: Relative Light Units. The results are average of triplicates or quadruplicates ±SEM (except in islets from L-798106 treated donor 2, representing duplicates).
Next, various concentrations of the compounds were tested in human pancreatic islet cells. Cells obtained from the first healthy donor (donor 1) were incubated in the presence or absence of PA with C13, C5 or L-798106 (L) at concentrations of 5, 2.5 and 0.5 μM. Caspase 3/7 enzymatic activity was measured as described above. The enzymatic activity is presented in FIG. 5A for 5 μM, FIG. 5B for 2.5 μM and FIG. 5C for 0.5 μM as relative light units (RLU/μg protein) and the graphs represent the average of n=3-4.

[2] = test system: db/db mice; assay: random blood glucose levels in db/db and control mice; assay type: in vivo; settings: for average random blood glucose levels in db/db mice: 8 weeks gavage, compared to the vehicle; for random blood glucose levels at 8 weeks: compared with L-798106 treated mice
Protocol: The effects of the compounds were tested in an in vivo model of diabetes. To this end, C57BLKS/J mice with the leptin receptor mutation (BKS-db; BKS.Cg-Dock7m+/+Leprdb/J), known as an animal model characteristic of human T2DM, were used, when both male and female homozygotes to Leprb mutation (db/db) develop spontaneous T2DM with phenotypes that include: (I) severe obesity, (II) progressive and sustained hyperglycemia, when the course of the disease is markedly influenced by genetic background BLKS (in contrast to regular C57BL/6J background mice with the same mutation (B6-db), (III) glucose intolerance resulting in elevated serum cholesterol, glucose, and triglycerides, and (VI) elevations of plasma blood sugar resulting in severe depletion of the insulin-producing β-cells of the pancreatic islets, and eventually death.
Two sets of experiments with two colonies of homozygote mice were performed with the C5 and C13 compounds (n=5 for each experiment), compared to L-798106. The compounds were administered to 7-8-week-old mice by oral gavage (2.5 mg/kg/day) for eight weeks. Control group (n=10-15) received vehicle (DMSO in PBS). Blood glucose was randomly tested throughout the experiment.
To test the effect of the compounds C15, C17 and C20 on random blood glucose levels, control and db/db mice underwent essentially the same treatment course and measurements as described in Example 9.

[3] = test system: MIN6 cells; assay: rescue of MIN6 cells from palmitate-induced apoptosis (cleaved caspase 3 western blot; FACS SubG1); assay type: cell-based, murine; settings: palmitic acid 0.3 mM, 48 hours; compared to L-798106
Protocol: as §1
Western blotting: Cells were lyzed in Laemmli protein sample buffer, separated on SDS-polyacrylamide gel, and transferred to […] nitrocellulose membranes (Schleicher and Schuell, Dassel, Germany). After blocking in 5% dried skimmed milk, the membranes were first incubated with the appropriate antibodies against: cleaved caspase-3 (Asp175) (Cell Signaling Technology Danvers, MA) and α-tubulin (Sigma-Aldrich.) and then with horseradish peroxidase conjugated anti-rabbit or anti-mouse IgG, followed by analysis with an enhanced chemiluminescence detection kit (Biological Industries, Israel).
The remaining compounds were screened for the ability to rescue β-cells from palmitate-induced apoptosis as compared to the commercial EP3 antagonist L-798106 by measuring the levels of the cleaved caspase 3 apoptotic marker, using Western Blot analysis (FIG. 1). […] Cell extracts were analyzed by western blotting for the presence of cleaved caspase 3 as compared to α-Tubulin.
The ability of the compounds to rescue β-cells from apoptosis was also evaluated using FACS analysis and measuring the SubG1 population (FIG. 2). […] Collected cells were analyzed by FACS and the SubG1 fractions (representing apoptotic cell products or components were compared. The average of 4-6 independent experiments is presented in FIG. 2.

[4] = test system: db/db mice; assay: Insulin Tolerance Test (ITT); assay type: in vivo; settings: 8 weeks oral treatment; 0.75 U/kg insulin; all time points; vs vehicle
Protocol: An Insulin Tolerance Test (ITT) was conducted to determine the effect of the test compounds on insulin resistance, following oral administration of Vehicle or the tested compounds as described in Example 9. To this end, the different treated groups were further subjected to a subsequent 5-hour fast and then injected with 0.75 U/kg insulin. Blood glucose was measured at the time of insulin injection (baseline level) and at the indicated time intervals thereafter. Blood glucose levels and AUC of the wild-type mice are presented in FIGS. 19A-19B respectively, and blood glucose levels and AUC of the db/db mice are presented in FIGS. 19C-19D respectively. The different test groups as presented in FIGS. 19A-19D are represented as described in Example 9.
To determine the effect of the C17 and C20 compounds on insulin resistance, an ITT was conducted essentially as described in Example 11. Blood glucose levels and AUC of the wild-type mice are presented in FIGS. 27A-27B respectively (n=5-15), and blood glucose levels and AUC of the db/db mice are presented in FIGS. 27C-27D respectively (n=5-10). The different test groups as presented in FIGS. 27A-27D are represented as described in Example 14.

[5] = test system: db/db mice; assay: intraperitoneal glucose tolerance test (IPGTT); assay type: in vivo; settings: 8 weeks oral 2.5 mg/kg/day; glucose 1 g/kg; all time points; vs vehicle
Protocol: Lepr^db/db homozygotes (db/db) and heterozygote Lepr^db/+ (wild type) mice were treated daily with 2.5 mg/kg/day oral administration of the Vehicle, the commercial EP3 antagonist L-798106 and the compounds C5 and C13 for 8 weeks, as described in Example 9. A glucose tolerance test (Intraperitoneal glucose tolerance test, IPGTT) was performed following four weeks and eight weeks of the onset of treatment, as follows. Glucose (1 g/kg) was injected following 8 hours of fasting, and blood glucose was measured at baseline and at 30-, 60-, 90- and 120-minutes post glucose administration.
Heterozygote (wild type) and diabetic db/db mice were treated daily with the Vehicle, L-798106 and the compounds C17 and C20 for 8 weeks, essentially as described in Example 9. A glucose tolerance test (IPGTT) was performed essentially as described in Example 10.

[6] = blood insulin concentrations by serum C-peptide ELISA; assay type: in vivo; settings: 8 weeks oral treatment; vs vehicle-treated diabetic mice
Protocol: At the end of the 8 week-long period of treatment as described in Example 9, mice were sacrificed and blood samples were collected, and analyzed for different parameters as detailed below.
Blood insulin concentrations.
Blood insulin concentrations. Following 8 weeks of treatment, blood samples were collected and the levels of insulin in the collected sera were assessed essentially as described in Example 12. The results are presented in FIG. 28, in which the different test groups as presented in FIG. 28 are represented as described in Example 14 and “ns” indicates non-significant differences. The numbers of tested mice are as follows: vehicle (n=10), L-798106 (n=10), C17 (n=5), C20 (n=5).

[7] = test system: pancreatic β-cell; settings: chow and high-fat diet islets; cited from earlier work

## Cc1n[nH]c(C)c1S(=O)(=O)Nc1ccccc1C(=O)N[C@@H](C)c1ccccc1 [Compound C4, (S)-2-((3,5-dimethyl-1H-pyrazole)-4-sulfonamido)-N-(1-phenylethyl)benzamide]
[1]
  inhibition of palmitate-induced apoptosis in human islets, donor 1: moderate inhibitory activity comparable to that of L-798106

## Cc1nn(C)c(C)c1C[C@@H](C)NC(=O)c1ccc(S(=O)(=O)Nc2ccccc2F)cc1 [Compound C9, (R)-4-(N-(2-fluorophenyl)sulfamoyl)-N-(1-(1,3,5-trimethyl-1H-pyrazol-4-yl)propan-2-yl)benzamide]
[1]
  inhibition of palmitate-induced apoptosis in human islets, donor 1: marked inhibitory activity

## CCn1nc(C)c(S(=O)(=O)Nc2ccc(Cl)cc2C(=O)c2ccc[nH]2)c1C [Compound C10, N-(4-chloro-2-(1H-pyrrole-2-carbonyl)phenyl)-1-ethyl-3,5-dimethyl-1H-pyrazole-4-sulfonamide]
[1]
  inhibiting or reversing palmitate-induced apoptosis in pancreatic islets of both human donors: failed to inhibit

## COc1ccc([C@@H](CC(=O)O)NC(=O)c2cn(Cc3cccc(F)c3)nn2)cc1OC [Compound C12, (R)-3-(3,4-dimethoxyphenyl)-3-(1-(3-fluorobenzyl)-1H-1,2,3-triazole-4-carboxamido)propanoic acid]
[1]
  rescuing human islet cells from apoptosis, compared with L-798106: to a greater extent than the EP3 antagonist L-798106

## COc1cc(/C=C(\CCC(=O)O)c2nc3ccccc3s2)ccc1OCc1ccccc1 [Compound C15, (E)-4-(benzo[d]thiazol-2-yl)-5-(4-(benzyloxy)-3-methoxyphenyl)pent-4-enoic acid]
[2]
  average random blood glucose levels in db/db mice: effective in lowering average blood glucose levels
[1]
  rescuing human islet cells from apoptosis, compared with L-798106: to a greater extent than the EP3 antagonist L-798106

## COc1cc(/C=C(/CC(=O)O)c2nc3ccccc3s2)ccc1OCc1cccc(C(F)(F)F)c1 [Compound C17, (Z)-3-(benzo[d]thiazol-2-yl)-4-(3-methoxy-4-((3-(trifluoromethyl)benzyl)oxy)phenyl)but-3-enoic acid]
[3]
  rescue of β-cells from palmitate-induced apoptosis (cleaved caspase 3; SubG1 population): exceptionally high efficacy
[2]
  average random blood glucose levels in db/db mice: effective in lowering average blood glucose levels
  random blood glucose levels at 8 weeks: the same blood glucose levels as the L-798106 treated mice
[4]
  glucose levels after insulin injection (insulin sensitivity), db/db mice: Improve Insulin Sensitivity
[5]
  hyperglycemia in IPGTT, db/db mice: significantly alleviated hyperglycaemia
[1]
  rescuing human islet cells from apoptosis, compared with L-798106: to a greater extent than the EP3 antagonist L-798106
[6]
  blood insulin levels (serum C-peptide) in diabetic mice: the differences did not reach statistical significance

## COc1cc(/C=C(\CCC(=O)O)c2nc3ccccc3s2)ccc1OCc1ccc(F)cc1 [Compound C20, (E)-4-(benzo[d]thiazol-2-yl)-5-(4-((4-fluorobenzyl)oxy)-3-methoxyphenyl)pent-4-enoic acid]
[2]
  average random blood glucose levels in db/db mice: effective in lowering average blood glucose levels
  random blood glucose levels at 8 weeks: the same blood glucose levels as the L-798106 treated mice
[4]
  glucose levels after insulin injection (insulin sensitivity), db/db mice: Improve Insulin Sensitivity
[5]
  hyperglycemia in IPGTT, db/db mice: significantly alleviated hyperglycaemia
[1]
  rescuing human islet cells from apoptosis, compared with L-798106: to a greater extent than the EP3 antagonist L-798106
[6]
  blood insulin levels (serum C-peptide) in diabetic mice: the differences did not reach statistical significance

## C=C1C(=O)OC(CCCCCCCC)C1C(=O)O (stereo not drawn) [Compound C75]
[7]
  glucose-induced insulin secretion: markedly reduced
  β cell electrical activity: markedly reduced
